Assay: Stability in water at room temperature, LC-MS/MS peak areas over 16 h
Type: physicochemical
Conditions: 5 μg/mL, 0-16 h
Text: The stability of native Piperacillin as well as its hydrolyzed forms was investigated (compounds 5, 9a, 9b and 10, respectively. From the hydrolysis pathway of Piperacillin (compound 5, see schematic drawing in FIG. 1) it is obvious that this compound hydrolyzed both on the piperazin ring and the lactam moiety, only one of both compounds is monitored to account for the loss or degradation of native Piperacillin (compound 5)). To this end, these compounds were freshly weighed and dissolved in water at a concentration of 1 mg/mL by rolling or stirring for 15 minutes at room temperature. Subsequently, these compounds were diluted to 5 μg/mL and measured with a suitable LC-MS/MS method at timepoints 0, 2, 4, 6, 8 and 16 h. For this, a Sunshell C18 (2.6 μm, 2.1 mm×50 mm) column with Solvent A: water with 0.1% HCOOH and Solvent B: CH3CN with 0.1% HCOOH and a flow of 0.6 mL per minute were used on an Agilent Infinity II multisampler/Pump system connected to an AB Sciex 6500+MS. The peaks were integrated using MultiQuant software and the areas of these peaks depicted in the graphs in FIGS. 2A and 2B.
The stability of double butylamide variants of Piperacillin (compound 7, see FIG. 4) was investigated at 2 MRMs using the identical protocol as in Examples 1.

course of obtained peak-areas over time: decreasing
SMILES: CCN1CCN(C(=O)N[C@@H](C(=O)N[C@@H]2C(=O)N3[C@@H]2SC(C)(C)[C@@H]3C(=O)O)c2ccccc2)C(=O)C1=O [Piperacillin]
